{
  "source": "patent US10100078B2",
  "about": "“Nanoparticles, process for preparation and use thereof as carrier for amphipatic and hydrophobic molecules in fields of medicine including cancer treatment and food related compounds” (priority 2011, dated 2018)",
  "key": {"HL-60 AML cells": {"test_system": "HL-60 AML cells", "assay": "FMCA cancer cell killing effect on HL-60 AML cells", "type": "cell-based, human", "details": "HL-60, 3 days, pre-determined concentrations, alone or combined; FIG. 7", "protocol": "All media were supplemented with 10% heat-inactivated fetal calf serum (FCS), 2 mM glutamine, 100 μg/ml streptomycin and 100 IE/ml penicillin (all from Sigma Aldrich Co, St Louis, Mo., USA). All cell lines were incubated at 37° C. in humidified air containing 5% CO2.\nThe FMCA method is based on measurement of fluorescence generated from hydrolysis of fluorescein diacetate (FDA) to fluorescein by cells with intact plasma membranes. After above mentioned incubation for 3 days, the medium was removed by aspiration. After one wash with PBS, 100 μl/well of FDA dissolved in a physiological buffer (10 μg/ml) was added. The plates were incubated for 45 minutes and the generated fluorescence from each well was measured in a 96-well scanning fluorometer. The fluorescence is proportional to the number of intact cells in the well. Quality criteria for a successful analysis included a fluorescence signal in the control wells of more than five times of the mean blank value, a mean co-efficient of variation (CV) in the control wells of less than 30%.\nThe samples were 5-fold serial diluted in 6 steps starting from 100 μg/ml, and incubated or 3 days with HL-60 AML cells f. Then the cells were stained and read by the FMCA method.\nHL-60 AML cells were exposed for 3 days at pre-determined concentrations of G3 and cytarabine separately and in combination of these two as shown on FIG. 7. […]"}, "[1]": {"test_system": "PC-3 prostate cancer cells", "assay": "FMCA cancer cell killing effect on PC-3 prostate cancer cells", "type": "cell-based, human", "details": "PC-3, 3 days", "protocol": "The human prostate adenocarcinoma, PC-3, cultured in a 50/50 mixture of HAM's F-12K and RPMI-1640. […] All media were supplemented with 10% heat-inactivated fetal calf serum (FCS), 2 mM glutamine, 100 μg/ml streptomycin and 100 IE/ml penicillin (all from Sigma Aldrich Co, St Louis, Mo., USA). All cell lines were incubated at 37° C. in humidified air containing 5% CO2.\nThe FMCA method is based on measurement of fluorescence generated from hydrolysis of fluorescein diacetate (FDA) to fluorescein by cells with intact plasma membranes. After above mentioned incubation for 3 days, the medium was removed by aspiration. […] The plates were incubated for 45 minutes and the generated fluorescence from each well was measured in a 96-well scanning fluorometer. The fluorescence is proportional to the number of intact cells in the well. Quality criteria for a successful analysis included a fluorescence signal in the control wells of more than five times of the mean blank value, a mean co-efficient of variation (CV) in the control wells of less than 30%.\nThe samples were 5-fold serially diluted in 6 steps starting from the concentration of 100 μg/ml, and incubated with PC-3 prostate cancer cells for 3 days. Then the cells were stained and read by the FMCA method.\nPC-3 cells were exposed for 3 days at pre-determined concentrations of G3 and docetaxel separately and in combination as shown on the graph. […]"}, "[2]": {"assay": "Detection of vitamin D3 in the water phase (DiaSorin Liaison)", "type": "physicochemical", "details": "50% cholesterol and 50% vitamin D3 membrane, assay has about one percent cross-reactivity with vitamin D3", "description": "Samples with cholecalciferol (vitamin D3) incorporated in G3 particles were analysed at a University Hospital Laboratory on a Liaison automatic instrument. Although the assay (DiaSorin Liaison) is designed to measure 25-HO-D3 it has about one percent cross-reactivity with non-hydroxylated vitamin D3.\nG3 particles were formed using 50% cholesterol and 50% vitamin D3 to form the lipid membrane. Quil A was added into the water phase to generate the G3 particles (for details, please refer to Example 1). 100% Cholesterol and 100% Vitamin D3 in water were used as the controls. Samples with vitamin D3 incorporated in G3 particles were analysed at the Uppsala University Hospital Laboratory on a DiaSorin Liaison automatic instrument."}},
  "data": [
    {"smiles": "Nc1ccn([C@@H]2O[C@H](CO)[C@@H](O)[C@@H]2O)c(=O)n1", "note": "[cytarabine]", "values": [
      {"measurement": "cells killed", "setting": "HL-60 AML cells", "value": 55, "unit": "%"}
    ]},
    {"smiles": "CO[C@H]1C(=O)[C@]2(C)[C@@H](OC)C[C@H]3OC[C@@]3(OC(C)=O)[C@H]2[C@H](OC(=O)c2ccccc2)[C@]2(O)C[C@H](OC(=O)[C@H](O)[C@@H](NC(=O)OC(C)(C)C)c3ccccc3)C(C)=C1C2(C)C", "note": "[Cabazitaxel, cabazitaxel]", "values": [
      {"measurement": "IC50", "setting": "[1]; Homo sapiens, 72 h, cabazitaxel from 100 μM, alone or with G3 fixed 1 μM, FIG. 11", "value": 25.5, "unit": "µM"}
    ]},
    {"smiles": "C=C1CC[C@H](O)C/C1=C/C=C1\\CCC[C@]2(C)[C@@H]([C@H](C)CCCC(C)C)CC[C@@H]12", "note": "[vitamin D3 control, cholecalciferol]", "values": [
      {"measurement": "vitamin D3 detected", "setting": "[2]", "value": "only trace amount"}
    ]},
    {"smiles": "CC(=O)O[C@@]12CO[C@@H]1C[C@H](O)[C@@]1(C)C(=O)[C@H](O)C3=C(C)[C@@H](OC(=O)[C@H](O)[C@@H](NC(=O)OC(C)(C)C)c4ccccc4)C[C@@](O)([C@@H](OC(=O)c4ccccc4)[C@H]21)C3(C)C", "note": "[docetaxel]", "values": [
      {"measurement": "cells killed", "setting": "[1]; pre-determined concentrations, alone or combined, FIG. 10", "value": 2, "unit": "%"}
    ]}
  ]
}
